Columns and labels:
HT1376 cells = test: [^68Ga]AJ647 binding after EV preincubation, HT1376 cells; format: cell-based; details: EV 60 nM preincubated 30 min, P < 0.0001
Protocol: An FITC analog of EV was made using the manufacturer’s recommended protocol (Thermo Fisher Scientific, no. 46409). Briefly, 1 mg of EV was incubated with FITC-NHS ester at a 5:1 molar ratio overnight at 4°C at 0.1 M borate buffer (pH 8.0). Excess unbound FITC-NHS ester was washed off by performing buffer exchange with 1× PBS using three rounds of ultracentrifugation at 4000g for 10 min (3-kDa molecular weight cutoff filter, Amicon, no. UFC900308). The effect of nonradioactive AJ647 on EV binding to Nectin-4 was assessed by incubating HT1376 cells at varying concentrations (5.4 μM to 0.01 nM using a serial dilution) of AJ647 for 30 min at 4°C. Unbound AJ647 was washed off using 3 ml of cold PBS. Cells were incubated with EV-FITC for 30 min at 4°C. Excess EV-FITC was washed off using 3 ml of cold PBS. The mean fluorescence intensity was measured using a flow cytometer, and data are reported as the percentage of 0 nM AJ647. For the effect of EV on [^68Ga]AJ647 binding, EV was used at concentrations of 90 to 0.04 nM using serial dilutions for 30 min at 4°C. Unbound EV was washed off using cold PBS. Then, cells were incubated with 1 μCi of [^68Ga]AJ647 for an additional 30 min. Excess [^68Ga]AJ647 was washed off three times with cold PBS. Samples were read in an automated gamma counter, and data are reported as the percentage of 1-μCi standard counts.

HT1376 tumors = test: EV effect on Nectin-4 temporal PD, [^68Ga]AJ647 PET; format: in vivo, NSG mice
Protocol: Mice with tumor volumes of ~100 to 150 mm^3 were injected with ~200 μCi [7.4 megabecquerels (MBq)] of [^68Ga]AJ647 in […] of 5% ethanol in saline intravenously and anesthetized under 2.5% isoflurane. PET-computed tomography (CT) images were acquired at 60 min after radiotracer injection at 5 min per bed in an ARGUS small-animal PET/CT scanner (Sedecal, Madrid, Spain) as described previously (n = 3, unless otherwise noted). PET-MR images were acquired on a simultaneous 7T Bruker PET-MR scanner. Dynamic imaging was conducted to evaluate the PK of [^68Ga]AJ647. [^68Ga]AJ647 was injected (with the help of a catheter) after mice were anesthetized under 2.5% isoflurane on the equipment bed. All PET data were reconstructed using the two-dimensional (2D) ordered subset expectation maximization algorithm and corrected for radioactive decay and dead times. The SUV values were calculated by finding %IA on the basis of a calibration factor obtained from a known radioactive quantity and then normalizing by mice weight. Amide software was used to derive SUV values by drawing the region of interest to closely fit tumors. In particular, MR images were used to identify tumor boundaries manually; these boundaries were transferred to co-registered PET images to derive SUVs. This process was repeated for each mouse individually in a blinded fashion. For the change in accessible Nectin-4 following EV treatment, ΔSUV was calculated by subtracting baseline (pre-treatment) uptake from posttherapy uptake of [^68Ga]AJ647. TE was quantified by normalizing this change by initial SUV in the same subject controls. Image fusion, visualization, and 3D rendering were accomplished using Amira 2020.3.1 (FEI, Hillsboro, OR). The dose-time PD of Nectin-4 following EV treatment was studied at doses of 6, 9, and 15 mg/kg. Experiments involving PET imaging were performed first. Male NSG mice were inoculated with 4 million HT1376 cells at day 0. On day 23 (average tumor volume, 150 ± 30 mm^3), mice were randomized to receive either saline or a single dose of EV (6, 9, or 15 mg/kg) intravenously (n = 3 for each dose and n = 2 for saline). Mice (n = 2) from each dose group and saline group were imaged on days 1, 3, and 6 following EV treatment. Once PET imaging results were analyzed, ex vivo distribution experiment was performed with n = 16 to 18 for each dose and n = 10 for saline. Treated mice (n = 8 or 9 per dose per time point) along with saline controls (n = 5 per time point) were euthanized on days 1 and 6. Biodistribution studies were performed at 60 min after [^68Ga]AJ647 injection, as described above. PD metrics were defined as follows Accessible Nectin−4=SUVpost/SUVpre∗100 Nectin−4 TE=(SUVpre−SUVpost)/SUVpre∗100

enfortumab vedotin [EV]
effect on [^68Ga]AJ647 binding (HT1376 cells): significantly reduced [^68Ga]AJ647 binding
Nectin-4 engagement by PET (HT1376 tumors; day 1, EV 6, 9 or 15 mg/kg single dose): full occupancy of Nectin-4
Nectin-4 engagement by PET (HT1376 tumors; day 3, EV 6 mg/kg): increase in [^68Ga]AJ647 uptake
Nectin-4 engagement by PET (HT1376 tumors; day 3, EV 9 and 15 mg/kg): low tracer uptake
Nectin-4 engagement by PET (HT1376 tumors; day 6, EV 6 mg/kg): significant increase in [^68Ga]AJ647 uptake
Nectin-4 engagement by PET (HT1376 tumors; day 6, EV 9 mg/kg): moderate increase in uptake
Nectin-4 engagement by PET (HT1376 tumors; day 6, EV 15 mg/kg): minimal tracer uptake
